Results on two compounds are retold here after patent US10555989B2, “Treatment of learning disabilities and other neurological disorders with SK channel inhibitor(s)” (priority 2015, dated 2020).

The subject of data set [1] is CD-1 mice. The protocol: Pregnant mice CD-1 mice purchased from Charles River Company and bred under a light-dark cycle at a constant temperature were injected i.p. with 2 g/kg with either PBS (control) or ethanol (EtOH) thus exposing fetal mice in utero to PBS or EtOH. Thirty days after mice were born (day P30) motor skills of the control and EtOH-treated groups were compared using Rotarod test. The treatment timeline for the mice is shown in FIG. 1A and the Rotarod test is depicted by FIG. 1B.
For assessment of motor learning behavior, mice (P30) were carried out using an accelerating Rotarod apparatus (TSE Instruments) over 3 repeated trials (5 minutes per trial)/day for 2 consecutive days before testing phase. The Rotarod testing involves placing the mice on a rotating bar and determining the length of time that they can retain their balance as the rate of rotation is increased (max 80 rpm, for 5 min). On the day of testing, mice were kept in their home cages and acclimated to the testing room for at least 15 min. 2 min acclimation session at 2 rpm one time prior to the test phase was performed. Testing phase consisted of 3 trials per day separated by 30 min each for 2 consecutive days (total 6 trials). Each trail was terminated when mouse fell off or reached maximum 5 min (maximum speed). During the trials, mice that moved 180° (same direction of rotation) were gently turned around, face forward, to opposite direction of rotation. The latency to fall from a rotating rod was scored automatically with infrared sensors in a Rotamex 5 rotarod (Columbus Inst.; Columbus, Ohio).

Data set [2] has as its system heat shock factor 1 (Hsf1). Conditions: alcohol regimen i.p. at E16.5 and E17.5.
Description: In utero electroporation was carried out as described [1-3]. Briefly, the plasmid for Flippase-FRT based reporter of heat shock factor 1 (Hsf1) activation was co-electroporated with EGFP-f plasmid (Addgene, 2 μg/μl each).
By using this method, the cells that had robust prenatal Hsf1 activation were labeled by RFP reporter.
The RFP reporter expression was induced upon Hsf1 activation in a subset of GFP-positive neurons. […] Pups were screened using an epifluorescence stereomicroscope at postnatal days (P1) that had GFP-positive cells in their primary motor cortex. Further experiments were performed on these mice i.e., single cell sampling, electrophysiology study, immunohistochemistry (IHC) and neurons morphology at P30.
The target of data set [3] is T1, KCNN2 (Mus musculus, UniProt P58390).
T1 construct: Coronal slices containing primary motor cortex (300 μm) were prepared; from tissue; host or cells: acute coronal slices of primary motor cortex from P30 mice, layer II/III pyramidal neurons
Description: Electrophysiology: tamapin-sensitive medium afterhyperpolarization (mAHP) in primary motor cortex slices. Conditions: Tamapin 100 nM. Format: cell-based, mice. The protocol:
Electrophysiology: Coronal slices containing primary motor cortex (300 μm) were prepared as described above by using a vibrating blade microtome (Leica VT 1000S) from DNA (HSE-FLP0, CAG GFP and RFP FRT, 2 μg/μl each) electroporated mice (P30) brain. The recording chamber was perfused with oxygenated (95% O2/5% CO2) aCSF at 2 ml/min at room temperature. DNA electroporated primary motor cortex neurons were visualized through an infrared charge-coupled device (CCD) camera (C2741-79; Hamamatsu Photonics, Hamamatsu, Japan). The electrodes were filled with internal solution containing (in mM) 130 […], 10 KCl, 10 HEPES, 10 EGTA, 2 MgCl2, 2 Na2-ATP and 0.3 Na-GTP (pH 7.3; electrode resistances: 4-6 MΩ). Cells were recorded in the whole-cell voltage or current clamp mode with a holding potential of −60 mV using a patch-clamp amplifier (700B; Molecular Devices, Sunnyvale, Calif. USA). Series resistance was compensated. The output of the amplifier was digitized using an A/D converter board (Digidata 1322; Molecular Devices) with a sampling rate of 10 kHz, and recorded on a hard disk by data acquisition software (pCLAMP10; Molecular Devices). For the mAHP, cells were held at −60 mV under current clamp mode and action potentials were evoked through injecting positive current. LTP was induced electrically under voltage clamp mode by applying single 1-sec train (100 Hz, 100 μA, Isoflexm, A.M.P.I; CPI, Carl Pisaturo Standord University).
Example 4 KCNN2 Antagonist, Tamapin (100 nM), Affects the Medium Duration Afterhyperpolarization (mAHP) in Reporter-Positive Pyramidal Neurons in M1
(FIGS. 4A-4C, panels a4-c4) Left panels: Cumulative distributions of the amplitude of action potential and the mean amplitude of action potentials (insets)recorded from control (black)- and Tamapin (red)-stimulated neurons. Right panels: Firing frequencies, showing significant increase in RFP^+ neurons. *P=0.016 by Student's t-test.

Data set [4] has as its system mice exposed to EtOH prenatally. Description: Accelerating Rotarod motor learning before and after Tamapin injection (i.p.) in mice exposed to EtOH prenatally. It counts as in vivo, CD-1 mice. The procedure: Mice were tested using the Rotarod test described above on postnatal days 30, 31, 32 and 33 days as shown by the timeline in FIG. 5A. Thus, the mice were tested for the motor learning before and after the Tamapin injection (i.p.).

Data set [5] has as its system SK2 channels. The following applies: cited from earlier work.

T1 sequence (P58390 266-839): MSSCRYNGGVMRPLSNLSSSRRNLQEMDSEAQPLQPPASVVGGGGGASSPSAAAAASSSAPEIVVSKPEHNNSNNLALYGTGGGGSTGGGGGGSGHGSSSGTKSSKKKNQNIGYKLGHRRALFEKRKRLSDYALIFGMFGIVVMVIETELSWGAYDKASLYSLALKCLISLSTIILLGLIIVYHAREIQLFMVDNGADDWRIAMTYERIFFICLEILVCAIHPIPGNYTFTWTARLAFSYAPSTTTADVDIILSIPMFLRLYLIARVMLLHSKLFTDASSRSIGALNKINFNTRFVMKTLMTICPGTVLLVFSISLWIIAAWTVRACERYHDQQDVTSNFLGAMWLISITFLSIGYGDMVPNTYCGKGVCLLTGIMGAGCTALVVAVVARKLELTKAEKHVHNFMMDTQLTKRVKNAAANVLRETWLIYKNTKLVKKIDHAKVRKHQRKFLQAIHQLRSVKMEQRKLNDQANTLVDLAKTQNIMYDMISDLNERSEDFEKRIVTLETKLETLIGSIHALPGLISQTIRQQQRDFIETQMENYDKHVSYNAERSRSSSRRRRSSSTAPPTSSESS

Take `CCO` [EtOH, ethanol]: the “learning and motor skills” value in data set [1] (exposure of fetal mice in utero vs control, summary of Example 1) was “negatively affects”. Further, the “initial motor coordination (terminal speed at trial 1, FIG. 1D)” value in data set [1] (in utero EtOH vs PBS, P30, P=0.579) is “not affected”. In addition, the “learning rates (learning index, Rotarod, FIG. 1C)” value in data set [1] (in utero exposure, 2 g/kg i.p. to pregnant mice, P30, males and females, vs PBS) is “decreased”. In data set [1] (trial 1 and trial 6), the “mean Rotarod terminal speed of control mice relative to EtOH-treated mice (FIG. 1F)” value is listed as “significantly higher”. Further, the “effects in brain structure” value in data set [2] is given as “did not induce any obvious effects”.

For the compound “AFCNLRRCELSCRSLGLLGKCIGEECKCVPY [Tamapin]”, in data set [3] (EtOH-exposed RFP+ neurons, P=0.016), the firing frequency entry is on record as “increased the firing frequency”. In addition, the “medium afterhyperpolarization (mAHP)” value in data set [3] (EtOH-exposed RFP+ pyramidal neurons, M1, P30 slices, P=0.009) is reported as “reduced the mAHP”. For the same compound, in data set [3] (RFP- neurons in PBS- or EtOH-exposed brains), the “effects on mAHP and firing in RFP- neurons” value is listed as “no significant effects”. Besides, the “initial motor coordination (FIG. 5C)” value in data set [4] (EtOH-exposed mice) is “not affected”. Moreover, in data set [4] (EtOH-exposed mice, trial 7-12, Tamapin i.p. vs vehicle, P=0.0001), the “motor learning (latency to fall, FIG. 5B)” value is “improved the motor learning”. The “latency to fall at the first trial followed by injection (trial 7), vehicle vs Tamapin” value in data set [4] (PBS-exposed and EtOH-exposed groups, P=0.302 and 0.960) is “similar”. Besides, the “initial motor coordination (FIG. 5F)” value in data set [4] (PBS-exposed mice) is “not affected”. Also, the “effects on motor learning (FIG. 5G)” value in data set [4] (PBS-exposed mice, trial 7-12, P=0.596) is listed as “No effects”. Moreover, the “motor learning / learning rate (FIG. 5D)” value in data set [4] (Tamapin-injected EtOH-exposed mice, trial 7-12, P=0.015) was “rescued”. Moreover, the “effects of fetal exposure to EtOH” value in data set [4] (summary of Example 5) is given as “significantly reversed”. The “rank order of affinity for SK channels” value in data set [5] (functional property of native tamapin) was “SK2 channel>SK3>SK1>SK4”. The SK channel selectivity entry in data set [5] (known property) is reported as “selective blocker of SK2 channels”.
